Measurements from patent publication US12660819B2, “Herbicidal derivatives” (SYNGENTA CROP PROTECTION AG, priority 2020, dated 2026).

What was measured:
Assay type in all cases: in vivo
[1] = system: Amaranthus retoflexus (AMARE); assay: Post-emergence Test (glasshouse, percentage damage to the plant); conditions: post-emergence spray, 1000 g/ha unless otherwise stated, evaluated after 13 days
In short: (§1)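 Scored 13 days after spraying as percentage plant damage in five bands (5=81–100%, 4=61–80%, 3=41–60%, 2=21–40%, 1=0–20%). Spray at 1000 g/ha unless stated, in acetone/water 50:50 plus 0.5% Tween 20, onto sown glasshouse pots (24/16 °C, 14 h light, 65% humidity).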

[2] = system: Echinochloa crus-galli (ECHCG); assay: as above; conditions: post-emergence spray, 1000 g/ha unless otherwise stated, evaluated after 13 days
In short: as §1

[3] = system: Ipomoea hederacea (IPOHE); assay: as above; conditions: post-emergence spray, 1000 g/ha unless otherwise stated, evaluated after 13 days
In short: as §1

[4] = system: Lolium perenne (LOLPE); assay: as above; conditions: post-emergence spray, 1000 g/ha unless otherwise stated, evaluated after 13 days
In short: as §1

[5] = system: Setaria faberi (SETFA); assay: as above; conditions: post-emergence spray, 1000 g/ha unless otherwise stated, evaluated after 13 days
In short: as §1

[6] = system: Solanum nigrum (SOLNI); assay: as above; conditions: post-emergence spray, 1000 g/ha unless otherwise stated, evaluated after 13 days
In short: as §1

[7] = system: Amaranthus retoflexus (AMARE); assay: Pre-emergence Test (glasshouse, percentage damage to the plant); conditions: 1000 g/ha unless otherwise stated, five-point scale
[8] = system: Solanum nigrum (SOLNI); assay: as above; conditions: 1000 g/ha unless otherwise stated, five-point scale
[9] = system: Setaria faberi (SETFA); assay: as above; conditions: 1000 g/ha unless otherwise stated, five-point scale
[10] = system: Lolium perenne (LOLPE); assay: as above; conditions: 1000 g/ha unless otherwise stated, five-point scale
[11] = system: Echinochloa crus-galli (ECHCG); assay: as above; conditions: 1000 g/ha unless otherwise stated, five-point scale
[12] = system: Ipomoea hederacea (IPOHE); assay: as above; conditions: 1000 g/ha unless otherwise stated, five-point scale

SMILES | Post-emergence Test AMARE, percentage damage to the plant (five-point scale) [1] | Post-emergence Test ECHCG, percentage damage to the plant (five-point scale) [2] | Post-emergence Test IPOHE, percentage damage to the plant (five-point scale) [3] | Post-emergence Test LOLPE, percentage damage to the plant (five-point scale) [4] | Post-emergence Test SETFA, percentage damage to the plant (five-point scale) [5] | Post-emergence Test SOLNI, percentage damage to the plant (five-point scale) [6] | percentage damage to the plant, AMARE [7] | percentage damage to the plant, SOLNI [8] | percentage damage to the plant, SETFA [9] | percentage damage to the plant, LOLPE [10] | percentage damage to the plant, ECHCG [11] | percentage damage to the plant, IPOHE [12]
CCn1c(C)c(-c2ccccc2Cl)c(=O)c(C(=O)O)c1-c1ccc(Cl)c(Cl)c1 [Compound 13, 5-(2-chlorophenyl)-2-(3,4-dichlorophenyl)-1-ethyl-6-methyl-4-oxo-pyridine-3-carboxylic acid] | 4 (4=61-80%) | 4 (4=61-80%) | 4 (4=61-80%) | 4 (4=61-80%) | 4 (4=61-80%) | 3 (3=41-60%) | 4 (4=61-80%) | 4 (4=61-80%) | 5 (5=81-100%) | 2 (2=21-40%) | 5 (5=81-100%) | 4 (4=61-80%)
CCn1c(C)c(-c2ccccc2F)c(=O)c(C(=O)O)c1-c1ccc(Cl)c(Cl)c1 [Compound 14, 2-(3,4-dichlorophenyl)-1-ethyl-5-(2-fluorophenyl)-6-methyl-4-oxo-pyridine-3-carboxylic acid] | 4 (4=61-80%) | 4 (4=61-80%) | 4 (4=61-80%) | 4 (4=61-80%) | 4 (4=61-80%) | 3 (3=41-60%) | 2 (2=21-40%) | 2 (2=21-40%) | 5 (5=81-100%) | 1 (1=0-20%) | 4 (4=61-80%) | 3 (3=41-60%)
CCn1c(C)c(-c2ccc(Cl)cc2Cl)c(=O)c(C(=O)O)c1-c1ccc(Cl)c(Cl)c1 [Compound 15, 5-(2,4-dichlorophenyl)-2-(3,4-dichlorophenyl)-1-ethyl-6-methyl-4-oxo-pyridine-3-carboxylic acid] | 5 (5=81-100%) | 4 (4=61-80%) | 2 (2=21-40%) | 1 (1=0-20%) | 5 (5=81-100%) | 4 (4=61-80%) | 5 (5=81-100%) | 3 (3=41-60%) | 5 (5=81-100%) | 1 (1=0-20%) | 1 (1=0-20%) | 1 (1=0-20%)
CCn1c(C)c(-c2cccc(OC(F)(F)F)c2)c(=O)c(C(=O)O)c1-c1ccc(Cl)c(Cl)c1 [Compound 16, 2-(3,4-dichlorophenyl)-1-ethyl-6-methyl-4-oxo-5-[3-(trifluoromethoxy)phenyl]pyridine-3-carboxylic acid] | 4 (4=61-80%) | 5 (5=81-100%) | 4 (4=61-80%) | 1 (1=0-20%) | 5 (5=81-100%) | 4 (4=61-80%) | 1 (1=0-20%) | 1 (1=0-20%) | 3 (3=41-60%) | 1 (1=0-20%) | 4 (4=61-80%) | 2 (2=21-40%)
CCn1c(C)c(-c2ccnc(F)c2)c(=O)c(C(=O)O)c1-c1ccc(Cl)c(Cl)c1 [Compound 17, 2-(3,4-dichlorophenyl)-1-ethyl-5-(2-fluoro-4-pyridyl)-6-methyl-4-oxo-pyridine-3-carboxylic acid] | 4 (4=61-80%) | 4 (4=61-80%) | 4 (4=61-80%) | 4 (4=61-80%) | 4 (4=61-80%) | 3 (3=41-60%) | 1 (1=0-20%) | 3 (3=41-60%) | 5 (5=81-100%) | 3 (3=41-60%) | 3 (3=41-60%) | 1 (1=0-20%)
CCn1c(C)c(-c2ccc(OC)cc2)c(=O)c(C(=O)O)c1-c1ccc(Cl)c(Cl)c1 [Compound 18, 2-(3,4-dichlorophenyl)-1-ethyl-5-(4-methoxyphenyl)-6-methyl-4-oxo-pyridine-3-carboxylic acid] | 5 (5=81-100%) | 4 (4=61-80%) | 5 (5=81-100%) | 2 (2=21-40%) | 5 (5=81-100%) | 5 (5=81-100%) | 1 (1=0-20%) | 2 (2=21-40%) | 4 (4=61-80%) | 1 (1=0-20%) | 2 (2=21-40%) | 1 (1=0-20%)
CCn1c(C)c(-c2cccnc2)c(=O)c(C(=O)O)c1-c1ccc(Cl)c(Cl)c1 [Compound 19, 2-(3,4-dichlorophenyl)-1-ethyl-6-methyl-4-oxo-5-(3-pyridyl)pyridine-3-carboxylic acid] | 4 (4=61-80%) | 5 (5=81-100%) | 4 (4=61-80%) | 3 (3=41-60%) | 4 (4=61-80%) | 5 (5=81-100%) | 1 (1=0-20%) | 1 (1=0-20%) | 1 (1=0-20%) | 1 (1=0-20%) | 1 (1=0-20%) | 1 (1=0-20%)
CCn1c(C)c(-c2cscc2C)c(=O)c(C(=O)O)c1-c1ccc(Cl)c(Cl)c1 [Compound 20, 2-(3,4-dichlorophenyl)-1-ethyl-6-methyl-5-(4-methyl-3-thienyl)-4-oxo-pyridine-3-carboxylic acid] | 4 (4=61-80%) | 3 (3=41-60%) | 2 (2=21-40%) | 2 (2=21-40%) | 4 (4=61-80%) | 3 (3=41-60%) | 1 (1=0-20%) | 2 (2=21-40%) | 4 (4=61-80%) | 3 (3=41-60%) | 2 (2=21-40%) | 1 (1=0-20%)
